Measured values published in BindingDB's records for doi:10.1016/j.bmc.2010.01.042 (Nerviano Medical Sciences, 2010).

Target: 3-phosphoinositide-dependent protein kinase 1 (Homo sapiens) (UniProt O15530)
Experiment: Inhibition of PDK1 by scintillation proximity assay

| SMILES | IC50 |
| --- | --- |
| CC(C)(C)C(=O)N1Cc2c(n[nH]c2NC(=O)c2cc(F)cc(F)c2)C1(C)C [N-[5-(2,2-Dimethylpropanoyl)-6,6-dimethyl-1,4,5,6-tetrahydropyrrolo[3,4-c]pyrazol-3-yl]-3,5-difluorobenzamide] | > 10 µM |
| CC(C)CC(=O)Nc1[nH]nc2c1CN(C(=O)C1CCN(C)CC1)C2(C)C | > 10 µM |
